This note sets out measurements from patent US9902728B2, “Pyrrolo and pyrazolopyrimidines as ubiquitin-specific protease 7 inhibitors” (Forma Therapeutics, Inc., priority 2014, dated 2018).

pIC50: −log10 of the molar value.

In the first assay the target is T1, USP7 (Homo sapiens, UniProt Q93009).
T1 construct: USP7, construct USP7 (208-1102) 6*His, Viva Biotech; 6xHis (C); purchased Viva Biotech
T1 sequence (Q93009 208-1102): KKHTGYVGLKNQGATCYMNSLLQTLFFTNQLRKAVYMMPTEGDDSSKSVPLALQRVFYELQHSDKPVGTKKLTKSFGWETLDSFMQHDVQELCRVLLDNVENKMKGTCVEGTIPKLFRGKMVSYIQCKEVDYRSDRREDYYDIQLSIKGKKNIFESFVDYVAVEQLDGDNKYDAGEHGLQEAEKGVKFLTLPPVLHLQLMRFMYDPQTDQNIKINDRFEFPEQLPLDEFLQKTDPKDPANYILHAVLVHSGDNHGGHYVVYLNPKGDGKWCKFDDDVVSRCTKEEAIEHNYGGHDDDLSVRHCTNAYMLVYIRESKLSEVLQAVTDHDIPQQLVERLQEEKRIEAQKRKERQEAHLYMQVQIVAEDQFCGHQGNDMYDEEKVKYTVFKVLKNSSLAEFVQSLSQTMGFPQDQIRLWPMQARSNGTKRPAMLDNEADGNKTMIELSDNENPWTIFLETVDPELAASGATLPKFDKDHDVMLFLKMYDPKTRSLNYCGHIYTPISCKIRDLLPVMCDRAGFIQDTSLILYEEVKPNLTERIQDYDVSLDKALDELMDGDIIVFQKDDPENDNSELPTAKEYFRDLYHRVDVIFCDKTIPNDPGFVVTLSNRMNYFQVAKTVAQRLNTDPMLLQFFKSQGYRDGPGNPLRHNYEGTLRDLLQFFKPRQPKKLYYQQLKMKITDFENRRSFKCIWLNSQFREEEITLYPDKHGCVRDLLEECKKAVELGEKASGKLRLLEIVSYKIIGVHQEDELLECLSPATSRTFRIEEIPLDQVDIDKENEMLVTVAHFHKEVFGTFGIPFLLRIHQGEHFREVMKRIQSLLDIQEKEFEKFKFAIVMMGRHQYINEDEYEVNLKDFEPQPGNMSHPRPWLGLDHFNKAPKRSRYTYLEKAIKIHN
The experiment in a line: USP7 Assay A (Ubitquin-Rhodamine 110 Assay). It is filed as biochemical. As to conditions: USP7 activity in USP7 assay A and B (table does not say which assay per compound); read-out: USP7_IC50. Put shortly:
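Ub-Rh110 cleavage in 20 mM Tris-HCl pH 8.0 with 1 mM GSH, 0.03% BGG, 0.01% Triton X-100; compound preincubated with enzyme 30 min before substrate.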
Regarding `O=C(c1ccc(F)cc1)N1CCC(O)(Cn2cnc3c(cnn3-c3ccc(N4CC[C@H](O)C4)cc3)c2=O)CC1` [Compound I-1434], the pIC50 was 5.00 to 6.00.

On to `CC1(C(=O)N2CCC(O)(Cn3cnc4c(cnn4-c4ccc(N5CCC(F)CC5)cc4)c3=O)CC2)CC1` [Compound I-1445], for which the pIC50 is 6.00 to 6.70.

Regarding `CC1(COc2ccc(-n3ncc4c(=O)n(CC5(O)CCN(C(=O)c6cnc(C7CC7)o6)CC5)cnc43)cc2)CCC1` [Compound I-1508], the pIC50 is 6.00 to 6.70.

On to `CC1(C(=O)N2CCC(O)(Cn3cnc4c(cnn4-c4cccc(N5CCC(F)CC5)c4)c3=O)CC2)CC1` [Compound I-1561], for which the pIC50 was more than 6.70.

Consider `CC1(C(=O)N2CCC(O)(Cn3cnc4c(cnn4-c4ccc(N5CC(C6CCOCC6)C5)cc4)c3=O)CC2)CC1` [Compound I-1570], for which the pIC50 is 6.00 to 6.70.

`O=C(c1ccc(F)cc1)N1CCC(O)(Cn2cnc3c(cnn3-c3ccc(-c4cnn(C5CCOCC5)c4)cc3)c2=O)CC1` [Compound I-1614]: the pIC50 was 6.00 to 6.70.

Regarding `O=C(c1ccc(F)cc1)N1CCC(O)(Cn2cnc3c(cnn3-c3ccc(-c4cnn(C5COC5)c4)cc3)c2=O)CC1` [Compound I-1615], the pIC50 is 6.00 to 6.70.

For `CC(C)(CO)n1cc(-c2ccc(-n3ncc4c(=O)n(CC5(O)CCN(C(=O)c6ccc(F)cc6)CC5)cnc43)cc2)cn1` [Compound I-1616], the pIC50 was 6.00 to 6.70.

Regarding `CC(C)(O)Cn1cc(-c2ccc(-n3ncc4c(=O)n(CC5(O)CCN(C(=O)c6ccc(F)cc6)CC5)cnc43)cc2)cn1` [Compound I-1617], the pIC50 was 6.00 to 6.70.

With `CN1CCC2(CC1)CCN(c1ccc(-n3ncc4c(=O)n(CC5(O)CCN(C(=O)c6ccc(F)cc6)CC5)cnc43)cc1)CC2` [Compound I-1621], the pIC50 was more than 6.70.

On to `CN1CCC2(CC1)CCN(c1ccc(-n3ncc4c(=O)n(CC5(O)CCN(C(=O)C6CC6)CC5)cnc43)cc1)CC2` [Compound I-1622], for which the pIC50 is more than 6.70.

`Cc1cnn(-c2ccc(-n3ncc4c(=O)n(CC5(O)CCN(C(=O)c6ccc(F)cc6)CC5)cnc43)cc2)c1` [Compound I-1623]: the pIC50 is 5.00 to 6.00.

As for `CC(=O)N1CCC(O)(Cn2cnc3c(cnn3-c3ccc(Cl)cc3)c2=O)CC1` [Compound I-1625], the pIC50 is less than 5.00.

Regarding `CC1(C(=O)N2CCC(O)(Cn3cnc4c(cnn4-c4ccc(Cl)cc4)c3=O)CC2)CC1` [Compound I-1632], the pIC50 is 5.00 to 6.00.

Staying with this assay, now noted: USP7 assay A and B (table does not say which assay per compound); read-out: USP7_IC50.
Consider `O=C(C1CC1)N1CCC(O)(Cn2cnc3c(cnn3-c3ccc(NS(=O)(=O)C4CC4)cc3)c2=O)CC1` [Compound I-1432], for which the pIC50 is 5.00 to 6.00.

For the compound `O=C(C1CC1)N1CCC(O)(Cn2cnc3c(cnn3-c3ccc(NS(=O)(=O)Cc4ccc(F)cc4)cc3)c2=O)CC1` [Compound I-1433], the pIC50 is 5.00 to 6.00.

For `O=C(c1cnc(C2CC2)o1)N1CCC(O)(Cn2cnc3c(cnn3-c3ccc(C(F)(F)F)cc3)c2=O)CC1` [Compound I-1437], the pIC50 is 5.00 to 6.00.

As to `O=C(Nc1ccc(-n2ncc3c(=O)n(CC4(O)CCN(C(=O)C5CC5)CC4)cnc32)cc1)Nc1cccnc1` [Compound I-1448], the pIC50 is 5.00 to 6.00.

For `CN(C)C(=O)N1CCC(O)(Cn2cnc3c(cnn3-c3ccc(N4CCC(F)(F)CC4)cc3)c2=O)CC1` [Compound I-1461], the pIC50 is 5.00 to 6.00.

As for `CN(C)C1CCN(C(=O)c2cccc(-n3ncc4c(=O)n(CC5(O)CCN(C(=O)C6CC6)CC5)cnc43)c2)CC1` [Compound I-1468], the pIC50 is 5.00 to 6.00.

For the compound `CN(C)CCNC(=O)c1ccc(-n2ncc3c(=O)n(CC4(O)CCN(C(=O)C5CC5)CC4)cnc32)cc1` [Compound I-1487], the pIC50 was 6.00 to 6.70.

`O=C(Nc1ccccc1)c1ccc(-n2ncc3c(=O)n(CC4(O)CCN(C(=O)C5CC5)CC4)cnc32)cc1` [Compound I-1490]: the pIC50 was 5.00 to 6.00.

As for `O=C(Nc1ccc(F)cc1)c1ccc(-n2ncc3c(=O)n(CC4(O)CCN(C(=O)C5CC5)CC4)cnc32)cc1` [Compound I-1492], the pIC50 was 5.00 to 6.00.

Regarding `O=C(Nc1nccs1)c1ccc(-n2ncc3c(=O)n(CC4(O)CCN(C(=O)C5CC5)CC4)cnc32)cc1` [Compound I-1493], the pIC50 is 5.00 to 6.00.

For the compound `CN(C)C1CCN(C(=O)c2ccc(-n3ncc4c(=O)n(CC5(O)CCN(C(=O)C6CC6)CC5)cnc43)cc2)CC1` [Compound I-1496], the pIC50 is 5.00 to 6.00.

With `O=C(Nc1ccc(-n2ncc3c(=O)n(CC4(O)CCN(C(=O)C5CC5)CC4)cnc32)cc1)N1CCCC1` [Compound I-1499], the pIC50 was 5.00 to 6.00.

Regarding `CN(C)C(=O)Nc1cccc(-n2ncc3c(=O)n(CC4(O)CCN(C(=O)C5CC5)CC4)cnc32)c1` [Compound I-1501], the pIC50 was 5.00 to 6.00.

For the compound `Cc1ccc(-n2ncc3c(=O)n(CC4(O)CCN(C(=O)c5ccc(Oc6ccccn6)cc5)CC4)cnc32)cc1` [Compound I-1510], the pIC50 is 6.00 to 6.70.

As to `Cc1ccc(-n2ncc3c(=O)n(CC4(O)CCN(C(=O)c5cnc(C)o5)CC4)cnc32)cc1` [Compound I-1514], the pIC50 is 6.00 to 6.70.

In the case of `O=C(c1ccc(Oc2ccccn2)cc1)N1CCC(O)(Cn2cnc3c(cnn3-c3ccc(Cl)cc3)c2=O)CC1` [Compound I-1519], the pIC50 is 5.00 to 6.00.

Regarding `O=C(c1ccc2c(c1)CCO2)N1CCC(O)(Cn2cnc3c(cnn3-c3ccc(Cl)cc3)c2=O)CC1` [Compound I-1521], the pIC50 was 5.00 to 6.00.

As to `Cc1ccc(C(=O)N2CCC(O)(Cn3cnc4c(cnn4-c4ccc(Cl)cc4)c3=O)CC2)cc1F` [Compound I-1523], the pIC50 is 5.00 to 6.00.

For `Cc1ncc(C(=O)N2CCC(O)(Cn3cnc4c(cnn4-c4ccc(Cl)cc4)c3=O)CC2)o1` [Compound I-1524], the pIC50 was 5.00 to 6.00.

As to `CN(C)C(=O)N1CCC(O)(Cn2cnc3c(cnn3-c3ccc(N4CCN5CCCCC5C4)cc3)c2=O)CC1` (centres unmarked) [Compound I-1525], the pIC50 was 5.00 to 6.00.

For `CN(C)C(=O)N1CCC(O)(Cn2cnc3c(cnn3-c3ccc(-n4cc(C(F)(F)F)cn4)cc3)c2=O)CC1` [Compound I-1526], the pIC50 is 5.00 to 6.00.

On to `O=C(c1cc2n(n1)CCO2)N1CCC(O)(Cn2cnc3c(cnn3-c3ccc(Cl)cc3)c2=O)CC1` [Compound I-1527], for which the pIC50 is 5.00 to 6.00.

For the compound `O=C(c1ccc(Oc2ncccn2)cc1)N1CCC(O)(Cn2cnc3c(cnn3-c3ccc(Cl)cc3)c2=O)CC1` [Compound I-1528], the pIC50 was 5.00 to 6.00.

Turning to `O=C(c1ccc(-n2ccnn2)cc1)N1CCC(O)(Cn2cnc3c(cnn3-c3ccc(F)cc3)c2=O)CC1` [Compound I-1535], the pIC50 is 6.00 to 6.70.

As to `Cc1ccc(-n2ncc3c(=O)n(CC4(O)CCN(C(=O)c5cnc(C6CC6)o5)CC4)cnc32)cc1` [Compound I-1542], the pIC50 was 6.00 to 6.70.

For the compound `CN(C)C(=O)N1CCC(O)(Cn2cnc3c(cnn3-c3ccc(NCCN4CCCCC4)cc3)c2=O)CC1` [Compound I-1543], the pIC50 is 6.00 to 6.70.

Consider `CN(C)C(=O)N1CCC(O)(Cn2cnc3c(cnn3-c3ccc(NC4CC(C)(C)C4)cc3)c2=O)CC1` [Compound I-1544], for which the pIC50 was 5.00 to 6.00.

Turning to `O=C(c1cc2n(n1)CCCO2)N1CCC(O)(Cn2cnc3c(cnn3-c3ccc(Cl)cc3)c2=O)CC1` [Compound I-1569], the pIC50 was 5.00 to 6.00.

For `CN(C)C(=O)Nc1ccc(-n2ncc3c(=O)n(CC4(O)CCN(C(=O)c5ccc(F)cc5)CC4)cnc32)cc1` [Compound I-1576], the pIC50 is 5.00 to 6.00.

On to `O=C(C1CC1)N1CCC(O)(Cn2cnc3c(cnn3-c3ccc(N4CCN5CCCCC5C4)cc3)c2=O)CC1` (centres unmarked) [Compound I-1584], for which the pIC50 was 6.00 to 6.70.
